`CC(C)(CN)Cc1ccc(-c2ccc(CC(C)(C)CN)cc2)cc1` displayed a melting point of 97 to 99 °C. As to `C=Cc1nc(Cl)nc(Cl)c1OC`, the melting point lay in the range of 60 to 61 °C. The molecule `N#Cc1ccc(Cc2ccc(OCc3ccccc3)cc2)cc1` displayed a melting point of 110 to 111 °C. `O=C(O)CN1C(=O)C(=Cc2ccc(C(=O)O)cc2)SC1=S`: the melting point is above 300 °C. In turn, `CC(C)(C)c1ccc(C(=O)Nc2cn3cc(-c4cn[nH]c4)ccc3n2)cn1` gave a melting point of 238 to 240 °C. `O=C(O)c1cc(C#Cc2ccccc2)cc2c1NCCC2` had a melting point of 187 to 188 °C. `O=C(Oc1ccc(F)cc1)[C@H]1CC[C@H](C(F)(F)C(F)(F)C(F)(F)C(F)(F)C(F)(F)C(F)(F)C(F)(F)F)CC1`: the melting point was determined as 93.6 °C. Turning to `CC(C)Cn1c(=O)n(C)c(=O)c2c(-c3cccc(-c4nnn[nH]4)c3)n(Cc3cccc4ccccc34)nc21`, the melting point is 251 to 254 °C. In turn, `CCc1nn(-c2ccc3cc(N=CN(C)C)c(=O)oc3c2)nc1C` came in with a melting point of 158 to 159 °C.

Molecule `CC(=O)C1=CCC2C3CCC4CC(O)CCC4(C)C3CCC12C` (configuration not stated) came in with a melting point of 186 to 188 °C. For `COc1ccc(CCN2CCC(N3Cc4cc(Cl)c(S(N)(=O)=O)cc4C3=O)CC2)cc1` the value was 125 to 135 °C; for `CCCCCCCNC(=O)Nc1ccccc1C(=O)NC1CCNCC1`, 159 °C. In the case of `Oc1c(C(=S)NCc2ccc(Cl)cc2)cnc2ccc(I)cc12`, the melting point lay in the range of 275 to 276 °C. Take `CCN1C(=O)CCCc2cc(Nc3ncc(Cl)c(N[C@H]4[C@@H](C(N)=O)[C@@H]5C=C[C@H]4C5)n3)c(OC)cc21`: the melting point lay within 145 to 153 °C. For `CCCCCCCCCCCCCc1nc(NC(=O)Nc2c(C(C)C)cccc2C(C)C)no1` the value was 99 to 101 °C; for `COc1ccc(C(=NO)c2ccc(Cl)cc2)c(O)c1`, 159 °C; for `FC(F)(c1ccccc1)C(F)(F)c1ccccc1Br`, 54 to 55 °C.

In the case of `COc1ccc(S(=O)(=O)N2C(=O)C(c3ccccc3OC)(N3CCC[C@H]3C(=S)N(C)C)c3cc(Cl)ccc32)c(OC)c1` (some centres not stated), the melting point is 164 °C. Consider `CS(=O)(=O)Nc1cc2occ(C(N)=O)c(=O)c2cc1Oc1ccccc1`, for which the melting point was above 250 °C. For the molecule `O=C(Nc1cccc(NC(=O)C(F)(F)C(F)(F)F)c1)Nc1ccc(Cl)c(Cl)c1`, the melting point lay within 195 to 197 °C. `CCNC(=O)Cn1cccc(O)c1=O` showed a melting point of 214 to 215 °C. For `COc1ccc(C(NC(=O)CC2CCCC2)C2=CCc3ccccc32)c(C(=O)NS(=O)(=O)c2ccccc2C)c1` (configuration not stated) the value was 227 to 228 °C; for `N#Cc1cc(N)ccc1N1CCCCC1`, 148 to 149 °C; for `COc1ccc(-c2cc(-c3sc(N)nc3-c3cccc(C)n3)ccn2)cc1`, 188 to 190 °C. Molecule `COc1ccc(C(OCC2OC(n3cnc4c(=O)[nH]c(NC(=O)Cc5ccc(Cl)cc5)nc43)CC2O)(c2ccccc2)c2ccc(OC)cc2)cc1` (configuration not stated) displayed a melting point of 150 to 155 °C. Molecule `Cc1cccc(CC(=O)c2ccnc(-c3ccc(C(=O)NC4CCOCC4)cc3)c2)n1` registered a melting point of 210 °C. Molecule `Cc1c(C(=O)Nc2ccc(N3CCC(N4CCNCC4)CC3)c(C#N)c2)cnn1-c1ccc(Cl)cc1` registered a melting point of 226 °C. `O=c1[nH]sc2c1c(=O)c1cc(F)c(N3CCNCC3)cc1n2C1CC1` yielded a melting point above 275 °C. With `CC(C)(C)Sc1c(CC(C)(C)C(=O)O)n(Cc2ccc(Cl)cc2)c2ccc(OCc3ccc(Cl)s3)cc12`, the melting point lay within 182 to 184 °C.

The molecule `COc1ccccc1[C@H](C)C(=O)N1C[C@@H]2[C@H](F)CCC(c3ccccc3)(c3ccccc3)[C@@H]2C1` showed a melting point of 195 °C. Molecule `N#Cc1ccc(C(=O)N2CCNC2=Nc2c(Cl)cccc2Cl)cc1` registered a melting point of 208 to 210 °C. As to `COc1ccc2ccccc2c1C(Nc1ccccc1C)C(N)=O` (configuration not stated), the melting point was determined as 195 °C.

As usually defined, the melting point is the temperature, or range, at which the solid turns liquid.

The values above are taken from a melting point compilation (Tetko et al.; mined from patent text by program, amines drawn as free bases though some values may be those of a salt).
